In patent US20170305857A1, “N-ACYLPIPERIDINE ETHER TROPOMYOSIN-RELATED KINASE INHIBITORS” (Pfizer Limited, priority 2014, published 2017):

Biological target: T1, recombinant His-tagged cytoplasmic domains of TRKA receptor (NTRK1, PV3144, aa 441-796) (Homo sapiens, UniProt P04629)
T1 construct: aa 441-796; His; purchased Invitrogen PV3144
Test: Isolated TRK enzyme assay (HTRF KinEASE-TK, PV3144 TrkA enzyme assay)
Assay type: biochemical
Conditions: 4 nM enzyme, 40 uM ATP, 35 min, arithmetic mean where more than one reading
Method: Isolated TRK Enzyme assays use the HTRF KinEASE-TK kit (Cisbio Cat #62TK0PEJ) with recombinant His-tagged cytoplasmic domains of TRKA receptor sourced from Invitrogen (see table below). This activity-assay measures the phosphorylation of tyrosine residues within a substrate from the HTRF kit which has been validated by Cisbio for a variety of tyrosine kinases including the TRK receptors.
0.5 mM stock solutions of test compounds are prepared and serially diluted in 100% DMSO. […] Greiner low volume black plates containing 0.2 ul of serially diluted compound, standard and HPE/ZPE are created using the Bravo nanolitre dispenser.
1× enzyme buffer is prepared from 5× Enzymatic Buffer from the Cisbio KinEASE TK kit using MilliQ water. The buffer is then supplemented with 10 mM MgCl and 2 mM DTT (both from Sigma).
Following this preactivation step, 5 ul/well of enzyme+ATP mix is added using a Multidrop Micro to the assay plate, spotted with 0.2 ul 100% DMSO compound. This is left for 20 mins at room temperature before adding 5 ul of 2 uM TK-substrate-Biotin (from the Cisbio kit) diluted in 1× enzyme buffer (1 uM FAC) using the Multidrop Micro. The reaction is incubated at room temperature for the optimized assay reaction time (see table).
After the Detection Reagent addition, plates are covered and incubated at room temperature for 60 minutes. […] Test compound data are expressed as percentage inhibition defined by HPE and ZPE values for each plate. Percentage inhibition in the presence of test compound is plotted against compound concentration on a log scale to determine an IC50 from the resultant sigmoid curve.
Where more than one reading was taken, the arithmetic mean is presented.

T1 sequence (P04629 441-796): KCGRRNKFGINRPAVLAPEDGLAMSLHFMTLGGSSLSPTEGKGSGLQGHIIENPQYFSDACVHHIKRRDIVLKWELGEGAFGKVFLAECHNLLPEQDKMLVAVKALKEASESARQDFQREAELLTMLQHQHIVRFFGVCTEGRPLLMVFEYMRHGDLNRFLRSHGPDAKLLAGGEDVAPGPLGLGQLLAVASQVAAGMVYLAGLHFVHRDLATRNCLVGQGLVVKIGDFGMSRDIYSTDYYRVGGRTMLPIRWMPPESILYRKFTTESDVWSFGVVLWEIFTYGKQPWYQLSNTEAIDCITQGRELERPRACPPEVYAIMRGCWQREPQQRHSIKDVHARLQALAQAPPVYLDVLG

| IC50 [nM] | SMILES |
| --- | --- |
| 2.4 | NC(=O)c1cc(-c2cnn(C3CCS(=O)(=O)C3)c2)ccc1OC1CCN(C(=O)Cc2ccc(OC(F)(F)F)cc2)CC1 (racemic) [Example 14, Racemic 5-[1-(1,1-dioxidotetrahydrothiophen-3-yl)-1H-pyrazol-4-yl]-2-[(1-{[4-(trifluoromethoxy)phenyl]acetyl}piperidin-4-yl)oxy]benzamide] |
| 2 | NC(=O)c1cc(-c2cnn(C3CS(=O)(=O)C3)c2)cnc1O[C@H]1CCN(C(=O)Cc2ccc(OC(F)(F)F)cc2)C[C@H]1F (racemic) [Example 38, 1:1 Cis-racemic 5-[1-(1,1-dioxidothietan-3-yl)-1H-pyrazol-4-yl]-2-{[3-fluoro-1-{[4-(trifluoromethoxy)phenyl]acetyl}piperidin-4-yl]oxy}pyridine-3-carboxamide] |
| 7 | NC(=O)c1cc(-c2cnn(C3CS(=O)(=O)C3)c2)cnc1O[C@H]1CCN(C(=O)Cc2ccc(OC3CC3)cn2)C[C@H]1F (racemic) [Example 39, 1:1 Cis-racemic 2-{[1-{[5-(cyclopropyloxy)pyridin-2-yl]acetyl}-3-fluoropiperidin-4-yl]oxy}-5-[1-(1,1-dioxidothietan-3-yl)-1H-pyrazol-4-yl]pyridine-3-carboxamide] |
| 1 | Cn1cnc(-c2ccc(O[C@H]3CCN(C(=O)Cc4ccc(OC5CC5)cc4)C[C@H]3F)c(C(N)=O)c2)c1 (racemic) [Example 40, 1:1 Cis-racemic 2-{[1-{[4-(cyclopropyloxy)phenyl]acetyl}-3-fluoropiperidin-4-yl]oxy}-5-(1-methyl-1H-imidazol-4-yl)benzamide] |
| 6.9 | CC(C)(O)Cn1cc(-c2ccc(O[C@@H]3CCN(C(=O)Cc4ccc(OC5CC5)cn4)C[C@H]3F)c(C(N)=O)c2)cn1 (racemic) [Example 43] |
| 3.8 | Cn1cnc(-c2ccc(O[C@@H]3CCN(C(=O)Cc4ccc(OC5CC5)cc4)C[C@H]3F)c(C(N)=O)c2)c1 (racemic) [Example 44] |
| 1.8 | CC(C)(O)Cn1cc(-c2ccc(O[C@H]3CCN(C(=O)Cc4ccc(OC5CC5)cn4)C[C@H]3F)c(C(N)=O)c2)cn1 (racemic) [Example 45] |
| 3.7 | Cn1cnc(-c2ccc(OC3CCN(C(=O)Cc4ccc(OC(F)(F)F)cc4)CC3(C)C)c(C(N)=O)c2)c1 (racemic) [Example 49, Racemic 2-((3,3-dimethyl-1-(2-(4-(trifluoromethoxy)phenyl)acetyl)piperidin-4-yl)oxy)-5-(1-methyl-1H-imidazol-4-yl)benzamide] |
| 3.6 | CC1CN(C(=O)Cc2ccc(OC(F)(F)F)cc2)CCC1Oc1ccc(-c2cn(C)cn2)cc1C(N)=O (racemic) [Example 50, Racemic 2-((3-methyl-1-(2-(4-(trifluoromethoxy)phenyl)acetyl)piperidin-4-yl)oxy)-5-(1-methyl-1H-imidazol-4-yl)benzamide] |
| 6.1 | CC1CC(Oc2ccc(-c3cn(C)cn3)cc2C(N)=O)CCN1C(=O)Cc1ccc(OC(F)(F)F)cc1 (racemic) [Example 51, Racemic 2-((2-methyl-1-(2-(4-(trifluoromethoxy)phenyl)acetyl)piperidin-4-yl)oxy)-5-(1-methyl-1H-imidazol-4-yl)benzamide] |
| 4.5 | Cn1cnc(-c2ccc(O[C@@H]3CCN(C(=O)Cc4ccc(OC(F)(F)F)cc4)C[C@@H]3F)c(C(N)=O)c2)c1 (racemic) [Example 52, 1:1 racemic mixture of 2-(((3S,4R)-3-fluoro-1-(2-(4-(trifluoromethoxy)phenyl)acetyl)piperidin-4-yl)oxy)-5-(1-methyl-1H-imidazol-4-yl)benzamide + (3R,4S) enantiomer] |
| 8.8 | CC(N)c1ccc(-c2cnc(OC3CCN(C(=O)Cc4ccc(OC(F)(F)F)cc4)CC3)c(C(N)=O)c2)cc1 (racemic) [Example 94, Racemic 5-[4-(1-aminoethyl)phenyl]-2-[(1-{[4-(trifluoromethoxy)phenyl]acetyl}piperidin-4-yl)oxy]pyridine-3-carboxamide] |
| 2.7 | CC(N)c1ccc(-c2ccc(OC3CCN(C(=O)Cc4ccc(OC(F)(F)F)cc4)CC3)c(C(N)=O)c2)cc1 (racemic) [Example 103, Racemic 4′-(1-aminoethyl)-4-[(1-{[4-(trifluoromethoxy)phenyl]acetyl}piperidin-4-yl)oxy]biphenyl-3-carboxamide] |
| 1.5 | Cn1cnc(-c2ccc(O[C@H]3CCN(C(=O)Cc4ccc(OC(F)(F)F)cc4)C[C@@H]3F)c(C(N)=O)c2)c1 (single isomer, unassigned) [Example 8] |
| 6.4 | Cn1cnc(-c2ccc(O[C@@H]3CCN(C(=O)Cc4ccc(OC(F)(F)F)cc4)C[C@H]3F)c(C(N)=O)c2)c1 (single isomer, unassigned) [Example 112] |
| 5 | CC(N)c1ccc(-c2cnc(OC3CCN(C(=O)Cc4ccc(OC(F)(F)F)cc4)CC3)c(C(N)=O)c2)cc1 (stereo in doubt) [Example 96, 5-{4-[(1S)-1-aminoethyl]phenyl}-2-[(1-{[4-(trifluoromethoxy)phenyl]acetyl}piperidin-4-yl)oxy]pyridine-3-carboxamide] |
| 0.4 | NC(=O)c1cc(-c2cnn(C3CS(=O)(=O)C3)c2)ccc1O[C@@H]1CCN(C(=O)Cc2ccc(OC(F)(F)F)cc2)C[C@@H]1F [Example 1, 5-[1-(1,1-dioxidothietan-3-yl)-1H-pyrazol-4-yl]-2-{[(3S,4R)-3-fluoro-1-{[4-(trifluoromethoxy)phenyl]acetyl}piperidin-4-yl]oxy}benzamide] |
| 1.2 | Cn1cc(-c2cnc(O[C@H]3CCN(C(=O)Cc4ccc(OC(F)(F)F)cc4)C[C@H]3F)c(C(N)=O)c2)cn1 [Example 4, 2-{[(3R,4S)-3-fluoro-1-{[4-(trifluoromethoxy)phenyl]acetyl}piperidin-4-yl]oxy}-5-(1-methyl-1H-pyrazol-4-yl)pyridine-3-carboxamide] |
| 0.9 | NC(=O)c1cc(-c2cn[nH]c2)ccc1O[C@H]1CCN(C(=O)Cc2ccc(OC(F)(F)F)cc2)C[C@H]1F [Example 5, 2-{[(3R,4S)-3-fluoro-1-{[4-(trifluoromethoxy)phenyl]acetyl}piperidin-4-yl]oxy}-5-(1H-pyrazol-4-yl)benzamide] |
| 1.5 | Cn1cnc(-c2ccc(O[C@@H]3CCN(C(=O)Cc4ccc(OC(F)(F)F)cc4)C[C@@H]3F)c(C(N)=O)c2)c1 [Example 6, 2-{[(3S,4R)-3-fluoro-1-(2-(4-(trifluoromethoxy)phenyl)acetyl)piperidin-4-yl]oxy}-5-(1-methyl-1H-imidazol-4-yl)benzamide] |
| 1.4 | Cn1cnc(-c2cnc(O[C@@H]3CCN(C(=O)Cc4ccc(OC5CC5)cc4)C[C@@H]3F)c(C(N)=O)c2)c1 [Example 7, 2-{[(3S,4R)-1-{[4-(cyclopropyloxy)phenyl]acetyl}-3-fluoropiperidin-4-yl]oxy}-5-(1-methyl-1H-imidazol-4-yl)pyridine-3-carboxamide] |
| 9.9 | Cn1cc(-c2ccc(OC3CCN(C(=O)Cc4ccc(OC(F)(F)F)cn4)CC3)c(C(N)=O)c2)cn1 [Example 10, 5-(1-methyl-1H-pyrazol-4-yl)-2-[(1-{[5-(trifluoromethoxy)pyridin-2-yl]acetyl}piperidin-4-yl)oxy]benzamide] |
| 2.2 | NC(=O)c1cc(-c2cnn(C3CS(=O)(=O)C3)c2)ccc1OC1CCN(C(=O)Cc2ccc(OC(F)(F)F)cc2)CC1 [Example 13, 5-[1-(1,1-dioxidothietan-3-yl)-1H-pyrazol-4-yl]-2-[(1-{[4-(trifluoromethoxy)phenyl]acetyl}piperidin-4-yl)oxy]benzamide] |
| 10.5 | Cn1cnc(-c2ccc(OC3CCN(C(=O)Cc4ccc(OC(F)(F)F)c(Cl)c4)CC3)c(C(N)=O)c2)c1 [Example 16, 2-[(1-{[3-chloro-4-(trifluoromethoxy)phenyl]acetyl}piperidin-4-yl)oxy]-5-(1-methyl-1H-imidazol-4-yl)benzamide] |
| 10.4 | Cn1cnc(-c2ccc(OC3CCN(C(=O)Cc4ccc(OC5CC5)cc4)CC3)c(C(N)=O)c2)c1 [Example 17, 2-[(1-{[4-(cyclopropyloxy)phenyl]acetyl}piperidin-4-yl)oxy]-5-(1-methyl-1H-imidazol-4-yl)benzamide] |
| 8.9 | Cn1cc(-c2ccc(OC3CCN(C(=O)Cc4ccc(C(C)(C)C)nc4)CC3)c(C(N)=O)c2)cn1 [Example 18, 2-({1-[(6-tert-butylpyridin-3-yl)acetyl]piperidin-4-yl}oxy)-5-(1-methyl-1H-pyrazol-4-yl)benzamide] |
| 5.7 | CS(=O)(=O)Cn1cc(-c2cnc(OC3CCN(C(=O)Cc4ccc(OC(F)(F)F)cc4)CC3)c(C(N)=O)c2)cn1 [Example 20, 5-{1-[(methylsulfonyl)methyl]-1H-pyrazol-4-yl}-2-[(1-{[4-(trifluoromethoxy)phenyl]acetyl}pjperidin-4-yl)oxy]pyridine-3-carboxamide] |
| 11 | CS(=O)(=O)Cn1cc(-c2cnc(OC3CCN(C(=O)Cc4ccc(OC(F)(F)F)c(F)c4)CC3)c(C(N)=O)c2)cn1 [Example 21, 2-[(1-{[3-fluoro-4-(trifluoromethoxy)phenyl]acetyl}piperidin-4-yl)oxy]-5-{1-[(methylsulfonyl)methyl]-1H-pyrazol-4-yl}pyridine-3-carboxamide] |
